{"source": "patent US6403777B1", "about": "“Metalloligands for cleaving nucleic acids” (The Ohio State University Research Foundation, priority 1999, dated 2002)", "key": {"Plasmid DNA [1]": {"tested_on": "Plasmid DNA", "assay": "Non-specific plasmid DNA cleavage under oxidizing conditions", "format": "biochemical", "settings": "for cleavage of DNA without metalloligand: no metalloligand", "procedure": "Plasmid DNA at a concentration of 50 μM, bp was added to a reaction solution containing 20 mM HEPES, pH 7.3, and the metalloligands of Examples 1-4 and the reducing agent ascorbic acid. […] The metalloligands of examples 1 to 4 also degraded plasmid DNA completely in the presence of 10 μM H2O2.\nHowever, superoxide dismutase (SOD) and NaN3 inhibited oxidative DNA cleavage mediated by Cu(kanamycin A). Accordingly, it is believed that activated oxygen species (such as O2^− or ^1O2) are involved in plasmid cleavage when the metalloligand and the substrate DNA are reacted under oxidizing conditions."}, "R23 RNA [2]": {"tested_on": "R23 RNA", "settings": "cited from earlier work"}, "[3]": {"assay": "Stability of the metalloligands in aqueous solution", "settings": "purified complex"}, "R23 RNA [4]": {"tested_on": "R23 RNA", "assay": "Cleaving R23 RNA at select sites under oxidizing conditions", "format": "biochemical", "procedure": "Uniformly labeled R23 RNA was incubated at 37° C. for 1 hr with various concentrations of Cu(kanamycin A) in the presence and absence of the co-reactants H2O2 and ascorbate. Cleavage products were separated on a denaturing polyacrylamide gel. […] These sites are depicted in FIG. 1. […] RNA cleavage of 30% was observed by FPLC with 1 nM Cu(kanamycin A) after incubation at 37° C. for 1 hour. Cleavage efficiencies of approximately 25% were obtained for solutions containing 50 pM Cu(kanamycin A) and 100 μM ascorbate or 1 μM H2O2 following incubation for 2 h at 37° C. Thus, Cu(kanamycin A) is able to selectively cleave RNA at physiological pH and under mild oxidizing conditions."}, "Plasmid DNA [5]": {"tested_on": "Plasmid DNA", "assay": "Non-specific plasmid DNA cleavage (hydrolytic conditions), gel electrophoresis", "format": "biochemical", "procedure": "The appearance of open circular DNA (form II) and the disappearance of supercoiled DNA (form I) was monitored via gel electrophoresis.\nMetalloligands comprising the transition metal ions Fe, Mn, Co, and Ni were formed by mixing a 10 μM solution of the salts FeSO4, MnCl2, CoSO4, and NiCi2, and an equivalent volume of 10 μM kanamycin A for 12 h at 35 ° C. Complex formation was monitored by thin layer chromatography, using PrOH:Me2CO:NH4OAc (20%(aq)) (1:1:5:0.025) on silica gel plates. […]"}, "linear oligo (A12-18)": {"tested_on": "linear oligo (A12-18)", "assay": "Cleavage of linear oligo (A12-18)", "settings": "similar reaction conditions as R23"}, "R23 RNA [6]": {"tested_on": "R23 RNA", "assay": "Specific cleavage of 23-mer R23 RNA, FPLC analysis", "format": "biochemical", "procedure": "The metalloligand is added to a sample containing substrate RNA with the recognized binding motif. Preferably, the RNA is in an aqueous solution having a pH of from about 7 to about 8. Preferably, the reaction is conducted at a temperatures ranging from 4° C. to about 40° C."}, "poly(C)": {"tested_on": "poly(C)", "assay": "Cleavage of poly(C)", "settings": "similar reaction conditions as R23"}}}
{"compound": "[Cu+2]", "note": "[Cu^2+(aq), reference compound]", "values": [{"measurement": "cleavage of DNA without metalloligand", "setting": "Plasmid DNA [1]; Cu2+ and ascorbate", "value": "did not occur"}, {"measurement": "cleavage of DNA without metalloligand", "setting": "Plasmid DNA [1]; Cu2+(aq) alone", "value": "did not occur"}]}
{"compound": "NC[C@@H]1O[C@H](O[C@H]2[C@@H](O)[C@H](O[C@@H]3[C@@H](O)[C@H](N)C[C@H](N)[C@H]3O[C@H]3O[C@H](CN)[C@@H](O)[C@H](O)[C@H]3N)O[C@@H]2CO)[C@H](N)[C@@H](O)[C@@H]1O", "note": "[neomycin B]", "values": [{"measurement": "binding affinity to R23 RNA", "setting": "R23 RNA [2]", "value": "high binding affinity"}]}
{"compound": "Cu(kanamycin A)", "values": [{"measurement": "stability in aqueous solution", "setting": "[3]", "value": "stable in aqueous solution for more than one day"}, {"measurement": "cleavage efficiency", "setting": "R23 RNA [4]; 50 pM complex, 100 μM ascorbate or 1 μM H2O2, 2 h, 37 °C", "value": "approximately 25%"}, {"measurement": "RNA cleavage", "setting": "R23 RNA [4]; 1 nM complex, 37 °C, 1 hour, FPLC", "value": 30, "unit": "%"}, {"measurement": "sites of cleavage in R23 RNA", "setting": "R23 RNA [4]; 37 °C, 1 hr, presence and absence of H2O2 and ascorbate, denaturing polyacrylamide gel", "value": "one in the loop region at G^15 and the other in the stem region at C^4"}, {"measurement": "degradation of target RNA", "setting": "R23 RNA [4]; nanomolar complex, 100 μM ascorbate or 1 μM H2O2", "value": "extremely efficient degradation"}, {"measurement": "nicking of plasmid DNA", "setting": "Plasmid DNA [5]; 500 nM complex, 5 minutes, plasmid DNA 50 μM bp, 20 mM HEPES pH 7.3", "value": "At least some DNA was nicked"}, {"measurement": "time to complete degradation of plasmid DNA", "setting": "Plasmid DNA [5]; 1 μM complex, plasmid DNA 50 μM bp, 20 mM HEPES pH 7.3", "value": "≤ 1", "unit": "h"}, {"measurement": "effect of quenchers on DNA cleavage", "setting": "Plasmid DNA [5]; addition of SOD, NaN3, DMSO, EtOH", "value": "not inhibited"}, {"measurement": "effect of excess metal-free aminoglycoside on DNA cleavage", "setting": "Plasmid DNA [5]; addition of excess metal-free aminoglycoside", "value": "inhibited cleavage"}, {"measurement": "DNA cleavage under anaerobic conditions", "setting": "Plasmid DNA [5]; argon atmosphere", "value": "not inhibited"}, {"measurement": "conversion of supercoiled DNA to linear form", "setting": "Plasmid DNA [1]; 5 nM complex, 10 μM ascorbate, supercoiled DNA 51 μM base pair", "value": "Complete conversion"}, {"measurement": "effect of hydroxy radical quenchers on oxidative DNA cleavage", "setting": "Plasmid DNA [1]; DMSO and EtOH", "value": "did not inhibit"}, {"measurement": "effect of SOD and NaN3 on oxidative DNA cleavage", "setting": "Plasmid DNA [1]; superoxide dismutase (SOD) and NaN3", "value": "inhibited"}, {"measurement": "cleavage of linear oligo (A12-18)", "setting": "linear oligo (A12-18)", "value": "no cleavage"}, {"measurement": "cleavage of structured 23 mer RNA", "setting": "R23 RNA [6]; 10 nmol complex, pH 7.3, 37 °C, 90 minutes", "value": "Good results"}, {"measurement": "hydrolysis of R23 RNA", "setting": "R23 RNA [6]; 20 nM complex, 23-mer RNA 30 μM base pair, 90 minutes, 20 mM HEPES pH 7.3, FPLC", "value": 54, "unit": "%"}, {"measurement": "hydrolysis efficiency of R23 RNA", "setting": "R23 RNA [6]; 100 nM complex instead of 20 nM", "value": "Hydrolysis efficiency increased"}, {"measurement": "cleavage of poly(C)", "setting": "poly(C)", "value": "no cleavage"}]}
{"compound": "Cu(kanamycin A)2", "values": [{"measurement": "concentration at which plasmid DNA was cleaved (as low as)", "setting": "Plasmid DNA [5]", "value": 100, "unit": "nM"}]}
{"compound": "Cu(neamine)", "values": [{"measurement": "stability in aqueous solution", "setting": "[3]", "value": "stable in aqueous solution for more than one day"}, {"measurement": "time to appearance of open circular DNA (form II)", "setting": "Plasmid DNA [5]; 0.1 μmolar complex, plasmid DNA 50 μM bp, 10 mM HEPES pH 7.3, 37 °C", "value": "within less than one hour"}]}
{"compound": "Cu(neomycin B)", "values": [{"measurement": "concentration at which plasmid DNA was cleaved (as low as)", "setting": "Plasmid DNA [5]", "value": 100, "unit": "nM"}]}
